Experiments:
Assay in all cases: relative viability (nuclei count vs DMSO), 5 days (fraction); higher = more cells survive
[1] = tested on: NCI-H322M
Outline: (§1)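 Cells from lung cancer lines were seeded into 1536-well plates and, one day later, dosed by pin tool. Treatments were either a single drug or a fixed dose of an anchor drug with five library-drug doses (not always all listed) in √10 steps. After 5 days, nuclei were stained in a one-step fixation (final 0.05% Triton X-100, 1% formaldehyde, 1 ug/ml Hoechst) and counted on 4× images, and relative viability is the treated-to-vehicle nuclei ratio, as the median of duplicate plates.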

[2] = tested on: H3255
Outline: as §1

[3] = tested on: NCI-H1666
Outline: as §1

[4] = tested on: NCI-H358
Outline: as §1

[5] = tested on: UMC-11
Outline: as §1

[6] = tested on: LXF-289
Outline: as §1

[7] = tested on: SK-MES-1
Outline: as §1

[8] = tested on: HCC-15
Outline: as §1

[9] = tested on: LCLC-97TM1
Outline: as §1

[10] = tested on: ChaGo-K-1
Outline: as §1

[11] = tested on: NCI-H661
Outline: as §1

[12] = tested on: LC-2-ad
Outline: as §1

[13] = tested on: NCI-H650
Outline: as §1

[14] = tested on: LK-2
Outline: as §1

[15] = tested on: NCI-H596
Outline: as §1

[16] = tested on: NCI-H2087
Outline: as §1

[17] = tested on: HCC-78
Outline: as §1

[18] = tested on: NCI-H838
Outline: as §1

[19] = tested on: NCI-H1944
Outline: as §1

[20] = tested on: BEN
Outline: as §1

[21] = tested on: PC-3 [JPC-3]
Outline: as §1

[22] = tested on: NCI-H1651
Outline: as §1

[23] = tested on: LU99A
Outline: as §1

`COc1cc(N2CCC(C(N)=O)CC2)ccc1Nc1nc(N)c(Cl)c(Nc2ccccc2S(=O)(=O)C(C)C)n1` [HG-5-88-01] + CS(=O)(=O)N1CCN(Cc2cc3nc(-c4cccc5[nH]ncc45)nc(N4CCOCC4)c3s2)CC1 [Pictilisib] (partner 1 µM) gave a relative viability ([1]; first compound 0.04 µM) of 0.461, a relative viability ([1]; first compound 0.1265 µM) of 0.471 and a relative viability ([1]; first compound 0.4 µM) of 0.512. The relative viability ([1]; first compound 1.265 µM) was 0.441, the relative viability ([1]; first compound 4 µM) was 0.449 and the relative viability ([2]; first compound 0.04 µM) was 0.479. The relative viability ([2]; first compound 0.1265 µM) was 0.484, the relative viability ([2]; first compound 0.4 µM) was 0.449 and the relative viability ([2]; first compound 4 µM) was 0.317. For the same compound, the relative viability ([3]; first compound 0.04 µM) was 0.503, the relative viability ([3]; first compound 0.1265 µM) was 0.43 and the relative viability ([3]; first compound 0.4 µM) was 0.467. The relative viability ([3]; first compound 1.265 µM) was 0.476, the relative viability ([3]; first compound 4 µM) was 0.34 and the relative viability ([4]; first compound 0.04 µM) was 0.292. The relative viability ([4]; first compound 0.1265 µM) was 0.384, the relative viability ([4]; first compound 0.4 µM) was 0.302 and the relative viability ([4]; first compound 1.265 µM) was 0.225. The relative viability ([4]; first compound 4 µM) was 0.301, the relative viability ([5]; first compound 0.04 µM) was 0.506 and the relative viability ([5]; first compound 0.1265 µM) was 0.937. It also gave a relative viability ([5]; first compound 0.4 µM) of 0.692, a relative viability ([5]; first compound 1.265 µM) of 0.815 and a relative viability ([5]; first compound 4 µM) of 0.49. For the same compound, the relative viability ([6]; first compound 0.04 µM) was 0.819, the relative viability ([6]; first compound 0.1265 µM) was 0.796 and the relative viability ([6]; first compound 0.4 µM) was 0.821. It also gave a relative viability ([6]; first compound 1.265 µM) of 0.81, a relative viability ([6]; first compound 4 µM) of 0.736 and a relative viability ([7]; first compound 0.04 µM) of 0.37. The relative viability ([7]; first compound 0.1265 µM) was 0.373, the relative viability ([7]; first compound 0.4 µM) was 0.354 and the relative viability ([7]; first compound 1.265 µM) was 0.282. It also gave a relative viability ([7]; first compound 4 µM) of 0.299, a relative viability ([8]; first compound 0.04 µM) of 0.844 and a relative viability ([8]; first compound 0.1265 µM) of 0.831. It also gave a relative viability ([8]; first compound 0.4 µM) of 0.741, a relative viability ([8]; first compound 1.265 µM) of 0.798 and a relative viability ([8]; first compound 4 µM) of 0.515. For the same compound, the relative viability ([9]; first compound 0.04 µM) was 0.156, the relative viability ([9]; first compound 0.1265 µM) was 0.185 and the relative viability ([9]; first compound 0.4 µM) was 0.146. For the same compound, the relative viability ([9]; first compound 1.265 µM) was 0.213, the relative viability ([9]; first compound 4 µM) was 0.135 and the relative viability ([10]; first compound 0.04 µM) was 0.794. The relative viability ([10]; first compound 0.1265 µM) was 0.785, the relative viability ([10]; first compound 0.4 µM) was 0.679 and the relative viability ([10]; first compound 1.265 µM) was 0.863. The relative viability ([10]; first compound 4 µM) was 0.556, the relative viability ([11]; first compound 0.04 µM) was 0.43 and the relative viability ([11]; first compound 0.1265 µM) was 0.477. For the same compound, the relative viability ([11]; first compound 0.4 µM) was 0.469, the relative viability ([11]; first compound 4 µM) was 0.418 and the relative viability ([12]; first compound 0.04 µM) was 0.429. It also gave a relative viability ([12]; first compound 0.1265 µM) of 0.491, a relative viability ([12]; first compound 0.4 µM) of 0.366 and a relative viability ([12]; first compound 1.265 µM) of 0.448. For the same compound, the relative viability ([12]; first compound 4 µM) was 0.334, the relative viability ([13]; first compound 0.04 µM) was 0.88 and the relative viability ([13]; first compound 0.1265 µM) was 0.925. For the same compound, the relative viability ([13]; first compound 0.4 µM) was 0.864, the relative viability ([13]; first compound 1.265 µM) was 0.743 and the relative viability ([13]; first compound 4 µM) was 0.685. For the same compound, the relative viability ([14]; first compound 0.04 µM) was 0.632, the relative viability ([14]; first compound 0.1265 µM) was 0.522 and the relative viability ([14]; first compound 0.4 µM) was 0.546. It also gave a relative viability ([14]; first compound 1.265 µM) of 0.386, a relative viability ([14]; first compound 4 µM) of 0.614 and a relative viability ([15]; first compound 0.04 µM) of 0.447. It also gave a relative viability ([15]; first compound 0.1265 µM) of 0.42, a relative viability ([15]; first compound 0.4 µM) of 0.382 and a relative viability ([15]; first compound 1.265 µM) of 0.414. The relative viability ([15]; first compound 4 µM) was 0.312, the relative viability ([16]; first compound 0.04 µM) was 0.835 and the relative viability ([16]; first compound 0.1265 µM) was 1.08. For the same compound, the relative viability ([16]; first compound 0.4 µM) was 0.928, the relative viability ([16]; first compound 1.265 µM) was 0.771 and the relative viability ([16]; first compound 4 µM) was 0.9. The relative viability ([17]; first compound 0.04 µM) was 0.204, the relative viability ([17]; first compound 0.1265 µM) was 0.19 and the relative viability ([17]; first compound 0.4 µM) was 0.153. For the same compound, the relative viability ([17]; first compound 1.265 µM) was 0.167, the relative viability ([17]; first compound 4 µM) was 0.157 and the relative viability ([18]; first compound 0.04 µM) was 0.312. It also gave a relative viability ([18]; first compound 0.1265 µM) of 0.503, a relative viability ([18]; first compound 0.4 µM) of 0.337 and a relative viability ([18]; first compound 1.265 µM) of 0.393. For the same compound, the relative viability ([18]; first compound 4 µM) was 0.383, the relative viability ([19]; first compound 0.04 µM) was 0.319 and the relative viability ([19]; first compound 0.1265 µM) was 0.341. It also gave a relative viability ([19]; first compound 0.4 µM) of 0.336, a relative viability ([19]; first compound 1.265 µM) of 0.334 and a relative viability ([19]; first compound 4 µM) of 0.352. It also gave a relative viability ([20]; first compound 0.04 µM) of 0.504, a relative viability ([20]; first compound 0.1265 µM) of 0.523 and a relative viability ([20]; first compound 0.4 µM) of 0.544. The relative viability ([20]; first compound 1.265 µM) was 0.468, the relative viability ([20]; first compound 4 µM) was 0.447 and the relative viability ([21]; first compound 0.04 µM) was 0.69. For the same compound, the relative viability ([21]; first compound 0.1265 µM) was 0.702, the relative viability ([21]; first compound 0.4 µM) was 0.636 and the relative viability ([21]; first compound 1.265 µM) was 0.494. For the same compound, the relative viability ([21]; first compound 4 µM) was 0.266, the relative viability ([22]; first compound 0.04 µM) was 0.51 and the relative viability ([22]; first compound 0.1265 µM) was 0.609. For the same compound, the relative viability ([22]; first compound 0.4 µM) was 0.559, the relative viability ([22]; first compound 1.265 µM) was 0.646 and the relative viability ([22]; first compound 4 µM) was 0.646. The relative viability ([23]; first compound 0.04 µM) was 0.31, the relative viability ([23]; first compound 0.1265 µM) was 0.315 and the relative viability ([23]; first compound 0.4 µM) was 0.303. The relative viability ([23]; first compound 1.265 µM) was 0.318 and the relative viability ([23]; first compound 4 µM) was 0.215.
